Reference: PMC12455572, “Amphipathic Proline-Rich Cell Penetrating Peptides for Targeting Mitochondria” (ACS Chemical Biology, 2025)
“Also recorded” adds a separate entry of the source. Where a SMILES comes first, the peptide text is derived from it. [ ]: non-standard residue; d: D form. The star is where a group is joined. 5FAM = O=C1OC2(c3ccc(O)cc3Oc3cc(O)ccc32)c2ccc(C(=O)*)cc21; Pro(cis-4-guanidino) = NC(N)=N[C@@H]1CN[C@H](C(=O)O)C1; Cha = N[C@@H](CC1CCCCC1)C(=O)O; Ahx = NCCCCCC(=O)O

Key:
MCF-7 cells = experiment: Confocal microscopy of live cells: cellular uptake and intracellular localization; type: cell-based; details: live MCF-7 cells; for Cellular uptake and intracellular localization (confocal microscopy): 1 h, 37 °C, DMEM + 1% FBS; for Intracellular localization after 24 h rest (confocal microscopy, Figure S7): 1 h incubation at 37 °C, washing, 24 h rest in DMEM + 10 % FBS, concentration not given
Procedure: MitoTracker Deep Red was used as a counter stain for mitochondria and Hoechst 33342 for the nucleus. […] To explore whether PPII-helicity is key for mitochondrial localization, we prepared peptide CF-Ahx-(ChaRR)3-NH2 with Arg instead of Gup residues. This control peptide features a flexible conformation as judged by CD spectroscopy (Figure S1B). […] These findings show the importance of the secondary structure of the CPP for subcellular organelle localization.
MCF-7 cells were seeded in a 8-μwell Ibidi plate at 25′000 cells/well in DMEM (100 μL, 10% FCS) and allowed to adhere overnight. The medium was removed, the cells were washed with PBS (200 μL, 1x) and incubated with the peptide solution at 20 μM, 10 μM, 5 μM or 2.5 μM in DMEM (200 μL, 1% FCS) for 1 h at 37 °C. The medium was removed, and the cells were washed with PBS (200 μL, 2x). MitoTracker Deep Red was distributed at 20 nM in DMEM (200 μL, 1% FBS) and the cells were incubated at 37 °C for 25 min. The medium was removed, and the cells were washed with PBS (200 μL, 2x). Hoechst333342 was distributed at 2 μM in DMEM (200 μL, 1% FBS) and the cells were incubated at 37 °C for 5 min. The cells were washed with PBS (200 μL, 2x), and FluoroBrite medium (200 μL) was added. The live cells were monitored on the confocal microscope at 37 °C, 5% CO2.
For the cells subjected to a 24 h rest period, the FluoroBrite medium was exchanged for DMEM (200 μL, 10% FBS) after the initial imaging, and the cells were kept in this medium for 24 h. The culture medium was then exchanged for FluoroBrite DMEM, and the cells were imaged again.
Fluorescence images of cells were collected using a Nikon Eclipse T1 (inverse) microscope equipped with a Yokogawa Confocal Scanner Unit CSU-W1-T2, containing a spinning disk (50 µm). The microscope is equipped with two EMCCD Andor iXon Ultra cameras. Emission in the blue channel (405 nm) was filtered with a 450/50 bandpass filter, emission in the green channel (488 nm) was filtered with a 525/50 bandpass, and the emission in the red channel (641 nm) was filtered with a 708/75 bandpass filter. Fluorescence images were obtained using an oil-immersion objective with a magnification of 100 × 1.4 CFI Plan Apo Oil.
Each experiment was repeated at least three times. The images acquired were adjusted using ImageJ2 software. Correlation coefficients were determined on entire images using JaCOP plugin.1 […]
MCF-7 cells were seeded in a 8-µwell Ibidi plate at 25’000 cells/well in DMEM (100 µL, 10% FCS) and allowed to adhere overnight. The medium was removed. The cells were washed with PBS (200 µL, 1x) and incubated with the peptide solution at 20 µM, 10 µM, 5 µM, or 2.5 µM in DMEM (200 µL, 1% FCS) for 1 h at 37 °C. The medium was removed, and the cells were washed with PBS (200 µL, 2x).
For imaging of mitochondria, MitoTracker Deep Red was added as described in the manuscript. For imaging of endosomes/lysosomes, Ly s o Tr a c k e r Deep Red was added (200 µL, 20 nM in DMEM, 1% FBS) followed by incubation of the cells at 37 °C for 25 min. The medium was removed, and the cells were washed with PBS (200 µL, 2x). For imaging of the nucleus, Hoechst333342 was added at (200 µL, 2 µM in DMEM, 1% FBS) followed by incubation of the cells at 37 °C for 5 min. The cells were washed with PBS (200 µL, 2x), and FluoroBrite medium (200 µL) was added. The live cells were monitored on the confocal microscope […]
MCF-7 cells were seeded in a 96-well plate at 7’500 cells/well in cell culture medium (200 µL, 10% FCS), and allowed to adhere overnight. The medium was removed, the cells were washed with PBS (100 µL, 1x) and incubated with the peptide solution at 20 µM, 10 µM, 5 µM, or 2.5 µM in DMEM (200 µL, 1% FCS) for 1 h at 37 °C. The medium was removed, and the cells were washed with PBS (100 µL, 1x). The MTT solution in DMEM (110 µL, 1.2 mM, 1% FBS) was added. The cells were incubated for 3 h at 37 °C. The […]

[1] = Stability of the peptides in cell lysate; type: in vitro ADME; details: 200 µM peptide, 37 °C, RP-HPLC at 488 nm; for Stability in MCF-7 cell lysate: MCF-7 cell lysate 1 mg/mL protein in PBS, time points 0 min, 1 h and 24 h
Procedure: MCF-7 cells were grown to confluency in a T-175 flask. Cells were washed with PBS (12 mL, 4 °C) and subsequently scraped off into PBS (7 mL, 4 °C) and collected in a Falcon tube. The suspension was then sonicated for 3 sec at an amplitude of 30% followed by a 30 sec rest period, and the procedure was repeated three time. The insoluble fraction was removed by centrifugation for 10 min at 12.000 rcf, at 4 °C and the supernatant was transferred to a new tube. […]
Stability of the peptides in cell lysate
The peptides were added (final concentration of 200 µM) to the MCF-7 cell lysate, with a protein concentration adjusted to 1 mg/mL with PBS. Immediately after addition of the peptide to the cell lysate, a sample (80 µL) was taken as the t = 0 min time point. The sample was diluted in MeCN (1:1), kept on ice for 5 min and centrifuged (12.000 rcf, 10 min, 4 °C). The supernatant was filtered and analyzed by analytical RP-HPLC (at 488 nm) using the standard conditions (gradient 70 % to 45 % of B over 20 min at 25 °C).
The stability of the peptides was monitored at time points 0 min, 1 h and 24 h.

[2] = concentration not stated at the place or given within the value

## N=C(N)N[C@H]1C[C@@H](C(=O)N2C[C@@H](NC(=N)N)C[C@H]2C(=O)N[C@@H](CC2CCCCC2)C(=O)N2C[C@@H](NC(=N)N)C[C@H]2C(=O)N2C[C@@H](NC(=N)N)C[C@H]2C(=O)N[C@@H](CC2CCCCC2)C(=O)N2C[C@@H](NC(=N)N)C[C@H]2C(=O)N2C[C@@H](NC(=N)N)C[C@H]2C(=O)N[C@@H](CC2CCCCC2)C(N)=O)N(C(=O)[C@H](CC2CCCCC2)NC(=O)CCCCCNC(=O)c2ccc3c(c2)C(=O)OC32c3ccc(O)cc3Oc3cc(O)ccc32)C1 [(ChaZZ)3-Cha, CF-Ahx-(ChaZZ)3-Cha-NH2] ({5FAM-Ahx}-[Cha][Pro(cis-4-guanidino)][Pro(cis-4-guanidino)][Cha][Pro(cis-4-guanidino)][Pro(cis-4-guanidino)][Cha][Pro(cis-4-guanidino)][Pro(cis-4-guanidino)][Cha]-NH2)
MCF-7 cells; 5 μM peptide
  Cellular uptake and intracellular localization (confocal microscopy): intracellular localization
MCF-7 cells; [2]
  Cellular uptake and intracellular localization (confocal microscopy): localized in mitochondria, endosomes, and the plasma membrane; also recorded: localized in the mitochondria and not the nucleus but was also trapped in endosomes
MCF-7 cells
  Intracellular localization after 24 h rest (confocal microscopy, Figure S7): localized predominantly in the mitochondria
[1]; human, cells or culture medium, lysate 1 mg/mL protein in PBS, after 24 h incubation, read-out: Fraction degraded in MCF-7 cell lysate
  metabolised at 24 h: ~6%

## CF-Ahx-(ChaZZ)3-NH2
MCF-7 cells; 5 μM peptide
  Cellular uptake and intracellular localization (confocal microscopy): low uptake; also recorded: no fluorescence was visible; also recorded: minimal fluorescence
MCF-7 cells; 10 μM peptide, MitoTracker Deep Red and Hoechst 33342 counterstain
  Cellular uptake and intracellular localization (confocal microscopy): localizes in the mitochondria; also recorded: localized in the mitochondria as well as in the cytoplasm and the nucleoli
MCF-7 cells; [2]
  Cellular uptake and intracellular localization (confocal microscopy): localized in the cytoplasm, the nucleoli, and the mitochondria at concentrations of 10 μM and higher
MCF-7 cells
  Intracellular localization after 24 h rest (confocal microscopy, Figure S7): localized predominantly in the mitochondria
[1]
  Stability in MCF-7 cell lysate: stable

## CF-Ahx-(ChaZZ)2-Cha-NH2
MCF-7 cells; 20 μM peptide
  Cellular uptake and intracellular localization (confocal microscopy): strong mitochondrial colocalization at 20 μM (Figure D) with limited endosomal entrapment
MCF-7 cells; [2]
  Cellular uptake and intracellular localization (confocal microscopy): localized in mitochondria and the cytoplasm
MCF-7 cells
  Intracellular localization after 24 h rest (confocal microscopy, Figure S7): localized in the cytoplasm as punctuated fluorescence and remains slightly in the mitochondria
[1]
  Stability in MCF-7 cell lysate: degraded in the MCF-7 cell lysate over time
